{"source": "patent US6914045B2", "about": "“Glycopeptide antibiotics” (Wyeth Holdings Corporation, priority 2001, dated 2005)", "assay_in_all_cases": "in vitro antibacterial evaluation, MIC by broth dilution", "format_in_all_cases": "cell-based", "key": {"Streptococcus sp.": {"test_system": "Streptococcus sp.", "method_in_brief": "(§1)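 MIC, the lowest antibiotic concentration preventing growth, was read across 64-0.06 μg/mL with 5×10^5 CFU/mL inoculum. Method followed NCCLS M7-A2 broth dilution using Mueller-Hinton II; Gram-positive strains covered recent methicillin-, penicillin- and/or vancomycin-resistant clinical isolates.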"}, "Enterococcus sp.": {"test_system": "Enterococcus sp.", "method_in_brief": "as §1"}, "Staphylococcus sp.": {"test_system": "Staphylococcus sp.", "method_in_brief": "as §1"}, "Escherichia coli": {"test_system": "Escherichia coli", "method_in_brief": "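MIC is the lowest antibiotic concentration (tested 64-0.06 μg/mL) preventing growth of a 5×10^5 CFU/mL inoculum. Determined by broth dilution in Mueller-Hinton II medium following NCCLS standard M7-A2.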"}}, "note": "Where two headings read alike, the source gives them in different places.", "data": [{"smiles": "CC(c1ccccc1)C1NC(=O)CNC(=O)C(CO)NC(=O)C(C(O)C2CNC(=N)N2C2OC(CO)C(O)C(O)C2O)NC(=O)C(C(O)C2CNC(=N)N2)NC(=O)C(Cc2ccc3oc(-c4ccc(-c5ccccc5)cc4)nc3c2)NC1=O", "note": "(stereo not drawn) [Example 33, Cyclo[3-[2-([1,1-biphenyl]-4-yl)-1,3-benzoxazol-5-yl]alanyl-3-(2-iminoimidazolidin-4-yl)-seryl-3-(3-hexopyranosyl-2-iminoimidazolidin-4-yl)serylserylglycyl-β-methylphenylalanyl]]", "values": [{"measurement": "MIC Streptococcus agalactiae (GC 4564)", "setting": "Streptococcus sp.", "value": 32, "unit": "µg/mL"}, {"measurement": "MIC Streptococcus pneumoniae (ATCC 6301)", "setting": "Streptococcus sp.", "value": 32, "unit": "µg/mL"}, {"measurement": "MIC Streptococcus pneumoniae (GC 1894)", "setting": "Streptococcus sp.", "value": 32, "unit": "µg/mL"}, {"measurement": "MIC Streptococcus pneumoniae (GC 4565)", "setting": "Streptococcus sp.", "value": 64, "unit": "µg/mL"}, {"measurement": "MIC Streptococcus pyogenes (GC 4563)", "setting": "Streptococcus sp.", "value": 16, "unit": "µg/mL"}, {"measurement": "MIC Enterococcus avium (GC 4558)", "setting": "Enterococcus sp.", "value": 8, "unit": "µg/mL"}, {"measurement": "MIC Enterococcus faecalis (ATCC 29212)", "setting": "Enterococcus sp.", "value": 32, "unit": "µg/mL"}, {"measurement": "MIC Enterococcus faecalis (GC 2242)", "setting": "Enterococcus sp.", "value": 16, "unit": "µg/mL"}, {"measurement": "MIC Enterococcus faecalis (GC 2691)", "setting": "Enterococcus sp.", "value": 16, "unit": "µg/mL"}, {"measurement": "MIC Enterococcus faecalis (GC 3059)", "setting": "Enterococcus sp.", "value": 32, "unit": "µg/mL"}, {"measurement": "MIC Enterococcus faecalis (GC 4552)", "setting": "Enterococcus sp.", "value": 16, "unit": "µg/mL"}, {"measurement": "MIC Enterococcus faecalis (GC 4553)", "setting": "Enterococcus sp.", "value": 16, "unit": "µg/mL"}, {"measurement": "MIC Enterococcus faecalis (GC 4554)", "setting": "Enterococcus sp.", "value": 16, "unit": "µg/mL"}, {"measurement": "MIC Enterococcus faecalis (GC 6189)", "setting": "Enterococcus sp.", "value": 16, "unit": "µg/mL"}, {"measurement": "MIC Enterococcus faecium (GC 2243)", "setting": "Enterococcus sp.", "value": 8, "unit": "µg/mL"}, {"measurement": "MIC Enterococcus faecium (GC 4556)", "setting": "Enterococcus sp.", "value": 64, "unit": "µg/mL"}, {"measurement": "MIC Enterococcus faecium (GC 4557)", "setting": "Enterococcus sp.", "value": 4, "unit": "µg/mL"}, {"measurement": "MIC Coagulase Negative Staphylococcus (GC 4547)", "setting": "Staphylococcus sp.", "value": 4, "unit": "µg/mL"}, {"measurement": "MIC Coagulase Negative Staphylococcus (GC 4548)", "setting": "Staphylococcus sp.", "value": 4, "unit": "µg/mL"}, {"measurement": "MIC Coagulase Negative Staphylococcus (GC 4549)", "setting": "Staphylococcus sp.", "value": 1, "unit": "µg/mL"}, {"measurement": "MIC Coagulase Negative Staphylococcus (GC 4551)", "setting": "Staphylococcus sp.", "value": 8, "unit": "µg/mL"}, {"measurement": "MIC Coagulase Negative Staphylococcus (GC 6257)", "setting": "Staphylococcus sp.", "value": 4, "unit": "µg/mL"}, {"measurement": "MIC Staphylococcus aureus (ATCC 29213)", "setting": "Staphylococcus sp.", "value": 8, "unit": "µg/mL"}, {"measurement": "MIC Staphylococcus aureus (GC 1131)", "setting": "Staphylococcus sp.", "value": 4, "unit": "µg/mL"}, {"measurement": "MIC Staphylococcus aureus (GC 3051)", "setting": "Staphylococcus sp.", "value": 16, "unit": "µg/mL"}, {"measurement": "MIC Staphylococcus aureus (GC 3053)", "setting": "Staphylococcus sp.", "value": 8, "unit": "µg/mL"}, {"measurement": "MIC Staphylococcus aureus (GC 4541)", "setting": "Staphylococcus sp.", "value": 8, "unit": "µg/mL"}, {"measurement": "MIC Staphylococcus aureus (GC 4542)", "setting": "Staphylococcus sp.", "value": 8, "unit": "µg/mL"}, {"measurement": "MIC Staphylococcus aureus (GC 4544)", "setting": "Staphylococcus sp.", "value": 4, "unit": "µg/mL"}, {"measurement": "MIC Staphylococcus aureus (GC 4545)", "setting": "Staphylococcus sp.", "value": 8, "unit": "µg/mL"}, {"measurement": "MIC Staphylococcus aureus-SMITH (GC 4543)", "setting": "Staphylococcus sp.", "value": 4, "unit": "µg/mL"}, {"measurement": "MIC Staphylococcus haemolyticus (GC 4546)", "setting": "Staphylococcus sp.", "value": 4, "unit": "µg/mL"}, {"measurement": "MIC Escherichia coli (ATCC 25922)", "setting": "Escherichia coli", "value": 64, "unit": "µg/mL"}, {"measurement": "MIC Escherichia coli (GC 4559)", "setting": "Escherichia coli", "value": 64, "unit": "µg/mL"}, {"measurement": "MIC Escherichia coli (GC 4560)", "setting": "Escherichia coli", "value": 16, "unit": "µg/mL"}]}, {"smiles": "CC(c1ccccc1)C1NC(=O)CNC(=O)C(CO)NC(=O)C(C(O)C2CNC(=N)N2C2OC(CO)C(O)C(O)C2O)NC(=O)C(C(O)C2CNC(=N)N2)NC(=O)C(Cc2ccc3oc(-c4ccccc4OC4OC(CO)C(O)C(O)C4O)nc3c2)NC1=O", "note": "(stereo not drawn) [Example 36, Cyclo[3-[2-[2-(hexopyranosyloxy)phenyl]-1,3-benzoxazol-5-yl]alanyl-3-(2-iminoimidazolidin-4-yl)seryl-3-(3-hexopyranosyl-2-iminoimidazolidin-4-yl)serylserylglycyl-β-methyl-phenylalanyl]]", "values": [{"measurement": "MIC Streptococcus pneumoniae (ATCC 6301)", "setting": "Streptococcus sp.; strain ATCC 6301, broth dilution, 18 hours at 35° C.", "value": ">128", "unit": "µg/mL"}, {"measurement": "MIC Streptococcus pneumoniae (GC 1894)", "setting": "Streptococcus sp.; strain GC 1894, broth dilution, 18 hours at 35° C.", "value": 128, "unit": "µg/mL"}, {"measurement": "MIC Streptococcus pyogenes (GC 4563)", "setting": "Streptococcus sp.; strain GC 4563, broth dilution, 18 hours at 35° C.", "value": 128, "unit": "µg/mL"}, {"measurement": "MIC Streptococcus agalactiae (GC 4564)", "setting": "Streptococcus sp.; strain GC 4564, broth dilution, 18 hours at 35° C.", "value": ">128", "unit": "µg/mL"}, {"measurement": "MIC Streptococcus pneumoniae (GC 4565)", "setting": "Streptococcus sp.; strain GC 4565, broth dilution, 18 hours at 35° C.", "value": ">128", "unit": "µg/mL"}, {"measurement": "MIC Enterococcus faecalis (ATCC 29212)", "setting": "Enterococcus sp.; strain ATCC 29212, broth dilution, 18 hours at 35° C.", "value": ">128", "unit": "µg/mL"}, {"measurement": "MIC Enterococcus faecalis (GC 2242)", "setting": "Enterococcus sp.; strain GC 2242, broth dilution, 18 hours at 35° C.", "value": ">128", "unit": "µg/mL"}, {"measurement": "MIC Enterococcus faecium (GC 2243)", "setting": "Enterococcus sp.; strain GC 2243, broth dilution, 18 hours at 35° C.", "value": ">128", "unit": "µg/mL"}, {"measurement": "MIC Enterococcus faecalis (GC 2691)", "setting": "Enterococcus sp.; strain GC 2691, broth dilution, 18 hours at 35° C.", "value": ">128", "unit": "µg/mL"}, {"measurement": "MIC Enterococcus faecalis (GC 3059)", "setting": "Enterococcus sp.; strain GC 3059, broth dilution, 18 hours at 35° C.", "value": ">128", "unit": "µg/mL"}, {"measurement": "MIC Enterococcus faecalis (GC 4552)", "setting": "Enterococcus sp.; strain GC 4552, broth dilution, 18 hours at 35° C.", "value": ">128", "unit": "µg/mL"}, {"measurement": "MIC Enterococcus faecalis (GC 4553)", "setting": "Enterococcus sp.; strain GC 4553, broth dilution, 18 hours at 35° C.", "value": 128, "unit": "µg/mL"}, {"measurement": "MIC Enterococcus faecalis (GC 4554)", "setting": "Enterococcus sp.; strain GC 4554, broth dilution, 18 hours at 35° C.", "value": ">128", "unit": "µg/mL"}, {"measurement": "MIC Enterococcus faecium (GC 4556)", "setting": "Enterococcus sp.; strain GC 4556, broth dilution, 18 hours at 35° C.", "value": ">128", "unit": "µg/mL"}, {"measurement": "MIC Enterococcus faecium (GC 4557)", "setting": "Enterococcus sp.; strain GC 4557, broth dilution, 18 hours at 35° C.", "value": 128, "unit": "µg/mL"}, {"measurement": "MIC Enterococcus avium (GC 4558)", "setting": "Enterococcus sp.; strain GC 4558, broth dilution, 18 hours at 35° C.", "value": 128, "unit": "µg/mL"}, {"measurement": "MIC Enterococcus faecalis (GC 6189)", "setting": "Enterococcus sp.; strain GC 6189, broth dilution, 18 hours at 35° C.", "value": ">128", "unit": "µg/mL"}, {"measurement": "MIC Staphylococcus aureus (ATCC 29213)", "setting": "Staphylococcus sp.; strain ATCC 29213, broth dilution, 18 hours at 35° C.", "value": ">128", "unit": "µg/mL"}, {"measurement": "MIC Staphylococcus aureus (GC 1131)", "setting": "Staphylococcus sp.; strain GC 1131, broth dilution, 18 hours at 35° C.", "value": ">128", "unit": "µg/mL"}, {"measurement": "MIC Staphylococcus aureus (GC 3051)", "setting": "Staphylococcus sp.; strain GC 3051, broth dilution, 18 hours at 35° C.", "value": ">128", "unit": "µg/mL"}, {"measurement": "MIC Staphylococcus aureus (GC 3053)", "setting": "Staphylococcus sp.; strain GC 3053, broth dilution, 18 hours at 35° C.", "value": ">128", "unit": "µg/mL"}, {"measurement": "MIC Staphylococcus aureus (GC 4541)", "setting": "Staphylococcus sp.; strain GC 4541, broth dilution, 18 hours at 35° C.", "value": ">128", "unit": "µg/mL"}, {"measurement": "MIC Staphylococcus aureus (GC 4542)", "setting": "Staphylococcus sp.; strain GC 4542, broth dilution, 18 hours at 35° C.", "value": ">128", "unit": "µg/mL"}, {"measurement": "MIC Staphylococcus aureus-SMITH (GC 4543)", "setting": "Staphylococcus sp.; strain GC 4543, broth dilution, 18 hours at 35° C.", "value": ">128", "unit": "µg/mL"}, {"measurement": "MIC Staphylococcus aureus (GC 4544)", "setting": "Staphylococcus sp.; strain GC 4544, broth dilution, 18 hours at 35° C.", "value": ">128", "unit": "µg/mL"}, {"measurement": "MIC Staphylococcus aureus (GC 4545)", "setting": "Staphylococcus sp.; strain GC 4545, broth dilution, 18 hours at 35° C.", "value": ">128", "unit": "µg/mL"}, {"measurement": "MIC Staphylococcus haemolyticus (GC 4546)", "setting": "Staphylococcus sp.; strain GC 4546, broth dilution, 18 hours at 35° C.", "value": 64, "unit": "µg/mL"}, {"measurement": "MIC Coagulase Negative Staphylococcus (GC 4547)", "setting": "Staphylococcus sp.; strain GC 4547, broth dilution, 18 hours at 35° C.", "value": 64, "unit": "µg/mL"}, {"measurement": "MIC Coagulase Negative Staphylococcus (GC 4548)", "setting": "Staphylococcus sp.; strain GC 4548, broth dilution, 18 hours at 35° C.", "value": 128, "unit": "µg/mL"}, {"measurement": "MIC Coagulase Negative Staphylococcus (GC 4549)", "setting": "Staphylococcus sp.; strain GC 4549, broth dilution, 18 hours at 35° C.", "value": 64, "unit": "µg/mL"}, {"measurement": "MIC Coagulase Negative Staphylococcus (GC 4551)", "setting": "Staphylococcus sp.; strain GC 4551, broth dilution, 18 hours at 35° C.", "value": ">128", "unit": "µg/mL"}, {"measurement": "MIC Coagulase Negative Staphylococcus (GC 6257)", "setting": "Staphylococcus sp.; strain GC 6257, broth dilution, 18 hours at 35° C.", "value": 64, "unit": "µg/mL"}, {"measurement": "MIC Escherichia coli (ATCC 25922)", "setting": "Escherichia coli; strain ATCC 25922, broth dilution, 18 hours at 35° C.", "value": ">128", "unit": "µg/mL"}, {"measurement": "MIC Escherichia coli (GC 4559)", "setting": "Escherichia coli; strain GC 4559, broth dilution, 18 hours at 35° C.", "value": 128, "unit": "µg/mL"}, {"measurement": "MIC Escherichia coli (GC 4560)", "setting": "Escherichia coli; strain GC 4560, broth dilution, 18 hours at 35° C.", "value": 64, "unit": "µg/mL"}]}]}
